Measured values taken from the kinase profiling compilation of Christmann-Franck et al. (2016).

Experiments:
Experiment in all cases: radiometric filter-binding kinase assay
[1] = tested on: RPS6KB1 (human), P23443 [T412E]
MAPK8 (human) = MAPK8 (human) (UniProt P45983)
MAPKAPK2 (human) = MAPKAPK2 (human) (UniProt P49137)
PAK4 (human) = PAK4 (human) (UniProt O96013)
EPHB2 (human) = EPHB2 (human) (UniProt P29323)
MARK2 (human) = MARK2 (human) (UniProt Q7KZI7)
CSNK1D (human) = CSNK1D (human) (UniProt P48730)
MARK1 (human) = MARK1 (human) (UniProt Q9P0L2)
MKNK2 (human) = MKNK2 (human) (UniProt Q9HBH9)
CHEK2 (human) = CHEK2 (human) (UniProt O96017)
NUAK1 (human) = NUAK1 (human) (UniProt O60285)
MKNK1 (human) = MKNK1 (human) (UniProt Q9BUB5)
MARK3 (human) = MARK3 (human) (UniProt P27448)
RPS6KA1 KD1 KD2 (human) = RPS6KA1 KD1 KD2 (human) (UniProt Q15418)
MAPK3 (human) = MAPK3 (human) (UniProt P27361)
IRAK4 (human) = IRAK4 (human) (UniProt Q9NWZ3)
[2] = tested on: AKT1 (human), P31749 [S473D]
STK3 (human) = STK3 (human) (UniProt Q13188)
CaMK1 (human) = CaMK1 (human) (UniProt Q14012)
NEK2 (human) = NEK2 (human) (UniProt P51955)
NTRK1 (human) = NTRK1 (human) (UniProt P04629)
TBK1 (human) = TBK1 (human) (UniProt Q9UHD2)
IKBKB (human) = IKBKB (human) (UniProt O14920)
MAPK14 (human) = MAPK14 (human) (UniProt Q16539)
MAPK9 (human) = MAPK9 (human) (UniProt P45984)
MAP2K1 (human) = MAP2K1 (human) (UniProt Q02750)
MAP3K11 (human) = MAP3K11 (human) (UniProt Q16584)
JAK2 JH1 JH2 (human) = JAK2 JH1 JH2 (human) (UniProt O60674)
DYRK3 (human) = DYRK3 (human) (UniProt O43781)
IKBKE (human) = IKBKE (human) (UniProt Q14164)
PIM1 (human) = PIM1 (human) (UniProt P11309)
TTK (human) = TTK (human) (UniProt P33981)
NEK6 (human) = NEK6 (human) (UniProt Q9HC98)
[3] = molecular target: STK11 CAB39 STRADA (human) (UniProt Q9Y376+Q7RTN6+Q15831)
DYRK1A (human) = DYRK1A (human) (UniProt Q13627)

MAPK14 (human), sequence (Q16539 whole entry, looked up): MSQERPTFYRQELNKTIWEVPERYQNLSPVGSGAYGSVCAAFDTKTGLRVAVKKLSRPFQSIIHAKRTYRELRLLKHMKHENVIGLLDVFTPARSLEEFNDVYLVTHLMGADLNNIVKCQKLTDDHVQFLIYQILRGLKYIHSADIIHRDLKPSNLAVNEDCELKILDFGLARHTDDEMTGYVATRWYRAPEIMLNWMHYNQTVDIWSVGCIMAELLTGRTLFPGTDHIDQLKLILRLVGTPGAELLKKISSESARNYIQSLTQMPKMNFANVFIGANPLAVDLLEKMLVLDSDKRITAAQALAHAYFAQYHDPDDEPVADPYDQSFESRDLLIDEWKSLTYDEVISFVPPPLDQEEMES
STK3 (human), sequence (Q13188 whole entry, looked up): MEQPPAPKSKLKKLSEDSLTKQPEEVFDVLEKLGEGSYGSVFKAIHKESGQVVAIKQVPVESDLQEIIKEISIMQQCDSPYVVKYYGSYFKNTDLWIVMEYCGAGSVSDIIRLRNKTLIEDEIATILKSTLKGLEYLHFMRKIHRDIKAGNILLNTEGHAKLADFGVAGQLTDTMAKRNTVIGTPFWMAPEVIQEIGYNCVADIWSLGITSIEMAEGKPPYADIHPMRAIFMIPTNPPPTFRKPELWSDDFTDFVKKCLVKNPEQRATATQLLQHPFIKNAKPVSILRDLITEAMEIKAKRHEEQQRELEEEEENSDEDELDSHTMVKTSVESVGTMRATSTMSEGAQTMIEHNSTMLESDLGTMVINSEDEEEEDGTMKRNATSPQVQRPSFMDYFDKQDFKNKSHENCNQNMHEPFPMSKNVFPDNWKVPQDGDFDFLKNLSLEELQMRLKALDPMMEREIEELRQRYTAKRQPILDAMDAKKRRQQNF
RPS6KA1 KD1 KD2 (human), sequence (Q15418 whole entry, looked up): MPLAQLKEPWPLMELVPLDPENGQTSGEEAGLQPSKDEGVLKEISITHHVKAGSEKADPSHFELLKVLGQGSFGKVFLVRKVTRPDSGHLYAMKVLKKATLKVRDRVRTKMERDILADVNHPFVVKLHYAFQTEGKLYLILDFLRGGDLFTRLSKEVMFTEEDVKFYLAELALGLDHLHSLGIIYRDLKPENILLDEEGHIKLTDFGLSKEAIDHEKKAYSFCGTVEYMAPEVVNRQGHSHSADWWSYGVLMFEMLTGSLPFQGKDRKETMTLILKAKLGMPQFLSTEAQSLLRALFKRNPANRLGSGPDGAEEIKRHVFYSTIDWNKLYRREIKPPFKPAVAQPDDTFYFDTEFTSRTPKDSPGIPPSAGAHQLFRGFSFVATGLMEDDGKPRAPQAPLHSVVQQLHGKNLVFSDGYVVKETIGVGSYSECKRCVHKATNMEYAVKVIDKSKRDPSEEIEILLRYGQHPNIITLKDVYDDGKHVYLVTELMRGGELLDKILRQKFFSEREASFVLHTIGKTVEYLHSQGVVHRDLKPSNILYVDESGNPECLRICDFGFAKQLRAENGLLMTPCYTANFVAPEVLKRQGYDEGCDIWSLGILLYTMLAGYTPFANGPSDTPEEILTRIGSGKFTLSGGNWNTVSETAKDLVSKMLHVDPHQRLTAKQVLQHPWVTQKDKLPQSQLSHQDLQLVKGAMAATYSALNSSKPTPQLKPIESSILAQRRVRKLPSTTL
CSNK1D (human), sequence (P48730 whole entry, looked up): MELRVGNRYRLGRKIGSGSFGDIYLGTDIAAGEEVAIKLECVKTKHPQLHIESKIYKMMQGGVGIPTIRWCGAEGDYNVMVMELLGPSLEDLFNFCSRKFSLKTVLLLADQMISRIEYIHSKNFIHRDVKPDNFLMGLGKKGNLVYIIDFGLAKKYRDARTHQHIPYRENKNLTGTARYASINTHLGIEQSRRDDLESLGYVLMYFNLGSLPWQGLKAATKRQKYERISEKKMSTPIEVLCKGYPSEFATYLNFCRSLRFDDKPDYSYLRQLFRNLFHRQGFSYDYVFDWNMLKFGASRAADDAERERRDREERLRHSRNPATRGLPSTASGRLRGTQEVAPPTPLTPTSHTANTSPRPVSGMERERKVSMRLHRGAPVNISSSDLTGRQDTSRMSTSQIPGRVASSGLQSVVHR
MAPK9 (human), sequence (P45984 whole entry, looked up): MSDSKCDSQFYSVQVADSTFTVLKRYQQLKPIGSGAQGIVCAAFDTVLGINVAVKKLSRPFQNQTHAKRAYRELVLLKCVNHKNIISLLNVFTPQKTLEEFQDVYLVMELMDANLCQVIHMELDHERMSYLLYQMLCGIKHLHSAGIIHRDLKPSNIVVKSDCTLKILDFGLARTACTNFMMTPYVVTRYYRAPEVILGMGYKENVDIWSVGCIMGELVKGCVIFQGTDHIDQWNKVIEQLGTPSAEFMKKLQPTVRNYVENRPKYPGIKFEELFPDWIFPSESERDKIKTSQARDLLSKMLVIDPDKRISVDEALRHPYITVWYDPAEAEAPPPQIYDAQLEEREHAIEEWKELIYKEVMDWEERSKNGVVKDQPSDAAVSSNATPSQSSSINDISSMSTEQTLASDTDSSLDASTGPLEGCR
MKNK1 (human), sequence (Q9BUB5 whole entry, looked up): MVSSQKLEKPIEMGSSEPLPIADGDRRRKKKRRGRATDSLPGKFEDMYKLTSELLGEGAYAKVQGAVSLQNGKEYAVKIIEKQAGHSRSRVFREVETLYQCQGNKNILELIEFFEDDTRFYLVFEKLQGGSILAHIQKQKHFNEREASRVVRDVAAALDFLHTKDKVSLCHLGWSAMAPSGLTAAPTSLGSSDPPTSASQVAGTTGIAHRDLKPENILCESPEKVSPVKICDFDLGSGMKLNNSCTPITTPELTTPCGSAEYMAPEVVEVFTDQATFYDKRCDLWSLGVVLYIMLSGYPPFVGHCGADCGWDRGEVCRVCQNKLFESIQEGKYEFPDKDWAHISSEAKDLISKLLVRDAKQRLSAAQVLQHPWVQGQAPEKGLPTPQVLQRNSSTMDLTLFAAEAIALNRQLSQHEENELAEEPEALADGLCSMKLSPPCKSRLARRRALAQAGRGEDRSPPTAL
AKT1 (human), P31749 [S473D], sequence (P31749 whole entry S473D, looked up): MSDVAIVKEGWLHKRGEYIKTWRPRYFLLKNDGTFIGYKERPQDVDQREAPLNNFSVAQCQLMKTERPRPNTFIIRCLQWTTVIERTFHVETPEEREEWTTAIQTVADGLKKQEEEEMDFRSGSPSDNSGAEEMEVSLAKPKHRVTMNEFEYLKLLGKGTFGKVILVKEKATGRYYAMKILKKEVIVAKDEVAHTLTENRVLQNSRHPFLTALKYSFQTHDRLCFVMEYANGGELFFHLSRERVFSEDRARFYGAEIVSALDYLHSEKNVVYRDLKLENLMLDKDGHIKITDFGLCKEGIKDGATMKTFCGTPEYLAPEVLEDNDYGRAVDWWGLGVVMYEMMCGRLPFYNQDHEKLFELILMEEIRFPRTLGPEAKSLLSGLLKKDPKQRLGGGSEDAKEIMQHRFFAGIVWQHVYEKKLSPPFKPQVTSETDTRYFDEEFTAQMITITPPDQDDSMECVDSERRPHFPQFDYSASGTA
IKBKB (human), sequence (O14920 whole entry, looked up): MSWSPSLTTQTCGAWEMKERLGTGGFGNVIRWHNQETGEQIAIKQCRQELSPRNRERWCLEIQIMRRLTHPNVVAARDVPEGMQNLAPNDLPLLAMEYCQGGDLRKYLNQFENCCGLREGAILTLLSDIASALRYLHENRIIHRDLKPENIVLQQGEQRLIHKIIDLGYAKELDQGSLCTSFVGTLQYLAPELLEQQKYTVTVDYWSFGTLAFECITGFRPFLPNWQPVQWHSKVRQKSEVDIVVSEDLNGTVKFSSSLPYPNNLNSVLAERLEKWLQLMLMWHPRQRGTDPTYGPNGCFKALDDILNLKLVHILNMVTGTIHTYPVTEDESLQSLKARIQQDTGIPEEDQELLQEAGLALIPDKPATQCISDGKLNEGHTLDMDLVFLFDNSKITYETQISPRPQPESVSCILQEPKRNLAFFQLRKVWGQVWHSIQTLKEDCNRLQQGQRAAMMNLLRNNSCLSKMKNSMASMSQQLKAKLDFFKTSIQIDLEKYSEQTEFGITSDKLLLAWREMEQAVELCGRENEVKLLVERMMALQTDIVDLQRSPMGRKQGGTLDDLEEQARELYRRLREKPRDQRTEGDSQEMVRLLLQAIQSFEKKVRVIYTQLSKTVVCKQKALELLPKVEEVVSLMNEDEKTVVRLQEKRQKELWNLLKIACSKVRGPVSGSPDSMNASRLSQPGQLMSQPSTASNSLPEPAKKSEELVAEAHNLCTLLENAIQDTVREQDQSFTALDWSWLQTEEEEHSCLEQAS
CaMK1 (human), sequence (Q14012 whole entry, looked up): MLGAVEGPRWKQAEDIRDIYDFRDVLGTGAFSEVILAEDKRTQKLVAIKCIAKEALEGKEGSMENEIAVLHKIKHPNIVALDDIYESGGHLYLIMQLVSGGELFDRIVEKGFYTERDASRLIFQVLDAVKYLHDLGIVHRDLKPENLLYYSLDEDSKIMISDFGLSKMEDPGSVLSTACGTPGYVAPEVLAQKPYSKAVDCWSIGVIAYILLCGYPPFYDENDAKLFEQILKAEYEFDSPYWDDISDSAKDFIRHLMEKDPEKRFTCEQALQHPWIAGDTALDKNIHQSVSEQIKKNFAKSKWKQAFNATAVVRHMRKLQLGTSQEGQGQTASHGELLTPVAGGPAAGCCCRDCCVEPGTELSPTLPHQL
NEK2 (human), sequence (P51955 whole entry, looked up): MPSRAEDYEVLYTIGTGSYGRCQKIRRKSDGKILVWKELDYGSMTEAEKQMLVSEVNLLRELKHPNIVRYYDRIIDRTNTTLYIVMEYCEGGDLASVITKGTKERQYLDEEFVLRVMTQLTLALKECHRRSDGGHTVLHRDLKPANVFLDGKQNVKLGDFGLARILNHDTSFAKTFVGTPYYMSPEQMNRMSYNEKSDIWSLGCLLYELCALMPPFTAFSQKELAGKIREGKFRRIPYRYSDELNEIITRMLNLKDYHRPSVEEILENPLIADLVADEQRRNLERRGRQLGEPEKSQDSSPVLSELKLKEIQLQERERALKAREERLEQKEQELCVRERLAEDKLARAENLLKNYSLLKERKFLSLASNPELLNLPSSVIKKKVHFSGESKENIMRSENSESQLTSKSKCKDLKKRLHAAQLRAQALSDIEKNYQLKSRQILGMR

residual activity ([1]; compound 10.0 µM): 78%
residual activity ([1]; compound 50.0 µM): 66%
residual activity ([1]; compound 100.0 µM): 38%
residual activity (MAPK8 (human); compound 10.0 µM): 99%
residual activity (MAPK8 (human); compound 50.0 µM): 102%
residual activity (MAPK8 (human); compound 100.0 µM): 93%
residual activity (MAPKAPK2 (human); compound 10.0 µM): 77%
residual activity (MAPKAPK2 (human); compound 50.0 µM): 32%
residual activity (MAPKAPK2 (human); compound 100.0 µM): 30%
residual activity (PAK4 (human); compound 10.0 µM): 52%
residual activity (PAK4 (human); compound 50.0 µM): 38%
residual activity (PAK4 (human); compound 100.0 µM): 41%
residual activity (EPHB2 (human); compound 10.0 µM): 93%
residual activity (EPHB2 (human); compound 100.0 µM): 13%
residual activity (MARK2 (human); compound 10.0 µM): 64%
residual activity (MARK2 (human); compound 100.0 µM): 49%
residual activity (CSNK1D (human); compound 10.0 µM): 88%
residual activity (CSNK1D (human); compound 50.0 µM): 60%
residual activity (CSNK1D (human); compound 100.0 µM): 88%
residual activity (MARK1 (human); compound 10.0 µM): 59%
residual activity (MARK1 (human); compound 100.0 µM): 68%
residual activity (MKNK2 (human); compound 10.0 µM): 102%
residual activity (MKNK2 (human); compound 50.0 µM): 80%
residual activity (MKNK2 (human); compound 100.0 µM): 86%
residual activity (CHEK2 (human); compound 10.0 µM): 79%
residual activity (CHEK2 (human); compound 50.0 µM): 52%
residual activity (CHEK2 (human); compound 100.0 µM): 33%
residual activity (NUAK1 (human); compound 10.0 µM): 61%
residual activity (NUAK1 (human); compound 100.0 µM): 10%
residual activity (MKNK1 (human); compound 10.0 µM): 104%
residual activity (MKNK1 (human); compound 50.0 µM): 66%
residual activity (MKNK1 (human); compound 100.0 µM): 93%
residual activity (MARK3 (human); compound 10.0 µM): 78%
residual activity (MARK3 (human); compound 50.0 µM): 87%
residual activity (MARK3 (human); compound 100.0 µM): 38%
residual activity (RPS6KA1 KD1 KD2 (human); compound 10.0 µM): 80%
residual activity (RPS6KA1 KD1 KD2 (human); compound 50.0 µM): 9%
residual activity (RPS6KA1 KD1 KD2 (human); compound 100.0 µM): 12%
residual activity (MAPK3 (human); compound 10.0 µM): 83%
residual activity (MAPK3 (human); compound 50.0 µM): 102%
residual activity (MAPK3 (human); compound 100.0 µM): 63%
residual activity (IRAK4 (human); compound 10.0 µM): 82%
residual activity (IRAK4 (human); compound 100.0 µM): 34%
residual activity ([2]; compound 10.0 µM): 94%
residual activity ([2]; compound 50.0 µM): 62%
residual activity ([2]; compound 100.0 µM): 78%
residual activity (STK3 (human); compound 10.0 µM): 60%
residual activity (STK3 (human); compound 50.0 µM): 36%
residual activity (STK3 (human); compound 100.0 µM): 20%
residual activity (CaMK1 (human); compound 10.0 µM): 68%
residual activity (CaMK1 (human); compound 50.0 µM): 45%
residual activity (CaMK1 (human); compound 100.0 µM): 7%
residual activity (NEK2 (human); compound 10.0 µM): 73%
residual activity (NEK2 (human); compound 50.0 µM): 52%
residual activity (NEK2 (human); compound 100.0 µM): 19%
residual activity (NTRK1 (human); compound 10.0 µM): 69%
residual activity (NTRK1 (human); compound 100.0 µM): 28%
residual activity (TBK1 (human); compound 10.0 µM): 67%
residual activity (TBK1 (human); compound 50.0 µM): 55%
residual activity (TBK1 (human); compound 100.0 µM): 29%
residual activity (IKBKB (human); compound 10.0 µM): 86%
residual activity (IKBKB (human); compound 50.0 µM): 60%
residual activity (IKBKB (human); compound 100.0 µM): 39%
residual activity (MAPK14 (human); compound 10.0 µM): 97%
residual activity (MAPK14 (human); compound 50.0 µM): 122%
residual activity (MAPK14 (human); compound 100.0 µM): 90%
residual activity (MAPK9 (human); compound 10.0 µM): 94%
residual activity (MAPK9 (human); compound 50.0 µM): 89%
residual activity (MAPK9 (human); compound 100.0 µM): 88%
residual activity (MAP2K1 (human); compound 10.0 µM): 79%
residual activity (MAP2K1 (human); compound 50.0 µM): 27%
residual activity (MAP2K1 (human); compound 100.0 µM): 29%
residual activity (MAP3K11 (human); compound 10.0 µM): 43%
residual activity (MAP3K11 (human); compound 100.0 µM): 4%
residual activity (JAK2 JH1 JH2 (human); compound 10.0 µM): 83%
residual activity (JAK2 JH1 JH2 (human); compound 100.0 µM): 32%
residual activity (DYRK3 (human); compound 10.0 µM): 54%
residual activity (DYRK3 (human); compound 50.0 µM): 47%
residual activity (DYRK3 (human); compound 100.0 µM): 6%
residual activity (IKBKE (human); compound 10.0 µM): 69%
residual activity (IKBKE (human); compound 50.0 µM): 47%
residual activity (IKBKE (human); compound 100.0 µM): 12%
residual activity (PIM1 (human); compound 10.0 µM): 26%
residual activity (PIM1 (human); compound 50.0 µM): 5%
residual activity (PIM1 (human); compound 100.0 µM): 7%
residual activity (TTK (human); compound 10.0 µM): 76%
residual activity (TTK (human); compound 100.0 µM): 48%
residual activity (NEK6 (human); compound 10.0 µM): 104%
residual activity (NEK6 (human); compound 50.0 µM): 94%
residual activity (NEK6 (human); compound 100.0 µM): 137%
residual activity ([3]; compound 10.0 µM): 86%
residual activity ([3]; compound 100.0 µM): 65%
residual activity (DYRK1A (human); compound 10.0 µM): 75%
residual activity (DYRK1A (human); compound 50.0 µM): 60%
residual activity (DYRK1A (human); compound 100.0 µM): 26%
SMILES: N#Cc1c(O)c2c(-c3ccc(-c4ccccc4O)cc3)csc2[nH]c1=O
